Results from patent US4465631A, “5-Substituted-3-isoxazolecarboxylic acid derivatives” (Ajinomoto Company, Incorporated, priority 1982, dated 1984).
In brackets after ≈: the same amount, converted by molar mass. Structures can show the parent of a compound that is named as a salt. Where two headings read alike, the source gives them in different places.

Tests used:
Assay in all cases: Antibacterial activity (MIC)
Assay type in all cases: cell-based
Pseudomonas maltophilia = conditions: Stenotrophomonas maltophilia
Text: (§1) Regarding the products produced in the above mentioned Examples antibacterial activities against some microorganisms were obtained.

Pseudomonas cepacia = conditions: Burkholderia cepacia
Text: as §1

Alcaligenes faecalis = system: Alcaligenes faecalis
Text: as §1

Klebsiella pneumoniae = system: Klebsiella pneumoniae
Text: as §1

Bacteroides fragilis = system: Bacteroides fragilis
Text: as §1

Pseudomonas aeruginosa = system: Pseudomonas aeruginosa
Text: as §1

[1] = system: Achromobacter xylosoxidans
Text: as §1

Serratia marcescens = system: Serratia marcescens
Text: as §1

Proteus mirabilis = system: Proteus mirabilis
Text: as §1

Escherichia coli = system: Escherichia coli
Text: as §1

Staphylococcus aureus = system: Staphylococcus aureus
Text: as §1

Structure (SMILES) | MIC (Pseudomonas maltophilia) | MIC (Pseudomonas cepacia) | MIC (Alcaligenes faecalis) | MIC (Klebsiella pneumoniae) | MIC (Bacteroides fragilis) | MIC (Pseudomonas aeruginosa) | MIC [1] | MIC (Serratia marcescens) | MIC (Proteus mirabilis) | MIC (Escherichia coli; read-out: MIC) | MIC (Staphylococcus aureus) | MIC (Escherichia coli)
Cc1ccc(-c2cc(C(=O)N[C@@H](C(=O)N[C@@H]3C(=O)N4[C@@H]3SC(C)(C)[C@@H]4C(=O)O)c3ccccc3)no2)cc1 [Example 1, α-[5-(4-methylphenyl)-3-isoxazolecarboxamido]-benzylpenicillin] | 6.25 µg/mL (≈ 11.7 µM) | 3.13 µg/mL (≈ 5.85 µM) | 6.25 µg/mL (≈ 11.7 µM) | 6.25 µg/mL (≈ 11.7 µM) | 6.25 µg/mL (≈ 11.7 µM) | 3.13 µg/mL (≈ 5.85 µM) | 1.56 µg/mL (≈ 2.92 µM) | 12.5 µg/mL (≈ 23.4 µM) | 0.78 µg/mL (≈ 1.46 µM) | 12.5 µg/mL (≈ 23.4 µM) | ≤ 0.1 µg/mL | 
COc1cccc(-c2cc(C(=O)N[C@@H](C(=O)N[C@@H]3C(=O)N4[C@@H]3SC(C)(C)[C@@H]4C(=O)O)c3ccccc3)no2)c1 [Example 3, D-α-(5-m-anisylisoxazole-3-carboxamido)-benzylpenicillin sodium salt] | 12.5 µg/mL | 3.13 µg/mL | 6.25 µg/mL | 12.5 µg/mL | 12.5 µg/mL | 6.25 µg/mL | 3.13 µg/mL | 12.5 µg/mL | 0.39 µg/mL | 12.5 µg/mL | 0.2 µg/mL | 
CC1(C)S[C@@H]2[C@H](NC(=O)C(C(=O)O)c3ccccc3)C(=O)N2[C@H]1C(=O)O (some centres unmarked) [Carbenicillin, reference compound] | > 100 µg/mL | > 100 µg/mL | > 100 µg/mL | > 100 µg/mL | > 100 µg/mL | 25 µg/mL (≈ 66.1 µM) | > 100 µg/mL | > 100 µg/mL | 0.78 µg/mL (≈ 2.06 µM) |  | 0.78 µg/mL (≈ 2.06 µM) | 12.5 µg/mL (≈ 33 µM)
CC1(C)S[C@@H]2[C@H](NC(=O)[C@H](NC(=O)c3cc(-c4cccs4)on3)c3ccccc3)C(=O)N2[C@H]1C(=O)O [Example 8, D-α-[5-(2-thienyl)-isoxazole-3-carboxamido]-benzyl-penicillin sodium salt] | 12.5 µg/mL | 6.25 µg/mL | 12.5 µg/mL | 12.5 µg/mL | 12.5 µg/mL | 6.25 µg/mL | 3.13 µg/mL | 25 µg/mL | 0.78 µg/mL | 12.5 µg/mL | ≤ 0.1 µg/mL | 
